Assays:
[1] = target: T1, hEP3 subtype (hEP3α, hEP3-21 and hEP3-9 isoforms) (Homo sapiens, UniProt P43115); experiment: [3H]PGE2 competition binding, value stated across the three hEP3 isoforms
T1 sequence (P43115 1-390): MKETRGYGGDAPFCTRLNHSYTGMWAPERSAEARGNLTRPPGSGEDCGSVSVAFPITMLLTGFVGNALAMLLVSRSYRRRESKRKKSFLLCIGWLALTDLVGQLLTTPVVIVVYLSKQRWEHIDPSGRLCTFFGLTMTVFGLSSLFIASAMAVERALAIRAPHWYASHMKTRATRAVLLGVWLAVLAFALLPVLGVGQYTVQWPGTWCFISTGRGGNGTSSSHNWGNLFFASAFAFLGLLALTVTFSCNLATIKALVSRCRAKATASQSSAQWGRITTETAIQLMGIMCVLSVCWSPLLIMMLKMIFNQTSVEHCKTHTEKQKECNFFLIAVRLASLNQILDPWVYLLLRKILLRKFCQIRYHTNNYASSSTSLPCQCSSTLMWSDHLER
Protocol: (§1) Mammalian cell transfectants are analyzed for both the levels of EP3 receptor activity and levels of EP3 protein by the following methods. Assessing EP3 receptor activity involves the direct introduction of a labelled ligand to the cells and determining the amount of specific binding of the ligand to the EP3-expressing cells. Binding assays for receptor activity are known in the art (Frey et al., 1993, Eur. J. Pharmacol., 244, pp 239-250).
The three cloned forms of the human prostaglandin E receptor EP3 subtype (hEP3a, hEP3-21 and hEP3-9) which differ in the carboxyl terminus region of the encoded protein were individually subcloned into the pcDNAlamp plasmid (Invitrogen) and transfected into COS-M6 cells using the DEAE-dextran method. The cells were maintained in culture for 72 hours, then harvested and membranes prepared by differential centrifugation (1000 x g for 10 minutes, then 100,000 x g for 30 minutes) following lysis of the cells by nitrogen cavitation. […] Incubations were conducted for 1 hour at room temperature prior to separation of the bound and free radioligand by rapid filtration as previously described (Frey et al., 1993).

hEP1 = target: T2, hEP1 (Homo sapiens, UniProt P34995); experiment: Binding at the hEP1 subtype (comparison value); settings: given for comparison
T2 sequence (P34995 1-402): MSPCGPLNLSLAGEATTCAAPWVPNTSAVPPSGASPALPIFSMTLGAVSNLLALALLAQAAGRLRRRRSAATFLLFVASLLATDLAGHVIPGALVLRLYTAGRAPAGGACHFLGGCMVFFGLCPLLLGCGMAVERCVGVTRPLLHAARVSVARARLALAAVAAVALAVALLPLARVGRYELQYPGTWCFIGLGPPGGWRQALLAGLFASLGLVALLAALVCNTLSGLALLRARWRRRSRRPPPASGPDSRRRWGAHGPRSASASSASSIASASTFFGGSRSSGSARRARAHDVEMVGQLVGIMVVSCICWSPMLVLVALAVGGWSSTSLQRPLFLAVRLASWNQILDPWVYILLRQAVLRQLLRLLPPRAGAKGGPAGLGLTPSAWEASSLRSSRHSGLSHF

hEP3-9 = target: T3, hEP3-9 (Homo sapiens, UniProt P43115); experiment: [3H]PGE2 binding assay, membranes of hEP3-9 transfected COS-M6 cells; settings: for fold less active than PGE2: competition for [3H]PGE2 specific binding, relative to PGE2
T3 construct: both a 1.7 kb full length human EP3-21 cDNA clone and a 1.4 kb full length human EP3-9 cDNA clone; expressed in transfected cells; host or cells: COS-M6 cells (membranes), pcDNAIamp vector
T3 sequence (P43115 1-365 isoform P43115-3): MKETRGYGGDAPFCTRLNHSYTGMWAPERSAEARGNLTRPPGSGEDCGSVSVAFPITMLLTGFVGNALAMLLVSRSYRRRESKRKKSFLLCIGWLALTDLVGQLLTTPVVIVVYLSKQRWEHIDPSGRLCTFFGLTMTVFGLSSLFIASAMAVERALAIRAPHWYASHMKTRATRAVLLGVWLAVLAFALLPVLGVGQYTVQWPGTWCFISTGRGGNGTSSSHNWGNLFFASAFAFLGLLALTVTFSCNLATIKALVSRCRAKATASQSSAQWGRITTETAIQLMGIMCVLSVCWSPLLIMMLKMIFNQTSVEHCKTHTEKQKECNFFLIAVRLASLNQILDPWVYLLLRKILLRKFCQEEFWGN
Protocol: as §1, with “cells.” for “cells. Binding assays for receptor activity are known in the art (Frey et al., 1993, Eur. J. Pharmacol., 244, pp 239-250).”
(§2) The three cloned forms of the human prostaglandin E receptor EP3 subtype (hEP3a, hEP3-21 and hEP3-9) which differ in the carboxyl terminus region of the encoded protein were individually subcloned into the pcDNAlamp plasmid (Invitrogen) and transfected into COS-M6 cells using the DEAE-dextran method. The cells were maintained in culture for 72 hours, then harvested and membranes prepared by differential centrifugation (1000 x g for 10 minutes, then 100,000 x g for 30 minutes) following lysis of the cells by nitrogen cavitation.

hEP3-21 = target: T4, hEP3-21 (Homo sapiens, UniProt P43115); experiment: [3H]PGE2 binding assay, membranes of pcDNAIamp-hEP3-21 transfected COS-M6 cells; settings: for fold less active than PGE2: competition for [3H]PGE2 specific binding, relative to PGE2
T4 construct: both a 1.7 kb full length human EP3-21 cDNA clone and a 1.4 kb full length human EP3-9 cDNA clone; expressed in transfected cells; host or cells: COS-M6 cells (membranes), pcDNAIamp vector
T4 sequence (P43115 1-388 isoform P43115-2): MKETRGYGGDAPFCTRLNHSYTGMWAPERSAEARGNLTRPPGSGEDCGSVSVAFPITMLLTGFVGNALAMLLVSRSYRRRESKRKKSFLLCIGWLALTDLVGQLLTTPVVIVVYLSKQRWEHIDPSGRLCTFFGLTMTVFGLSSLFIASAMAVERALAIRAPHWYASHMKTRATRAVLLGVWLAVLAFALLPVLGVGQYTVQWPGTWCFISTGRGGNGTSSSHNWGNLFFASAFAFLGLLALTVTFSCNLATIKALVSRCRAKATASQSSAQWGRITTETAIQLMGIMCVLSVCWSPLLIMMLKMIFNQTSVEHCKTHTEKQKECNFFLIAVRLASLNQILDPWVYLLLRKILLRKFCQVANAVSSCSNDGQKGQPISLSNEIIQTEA
Protocol: as §1, with “cells.” for “cells. Binding assays for receptor activity are known in the art (Frey et al., 1993, Eur. J. Pharmacol., 244, pp 239-250).”
as §2

hEP3α = target: T5, hEP3α (Homo sapiens, UniProt P43115); experiment: [3H]PGE2 binding assay, membranes of pcDNAIamp-hEP3α transfected COS-M6 cells; settings: for fold less active than PGE2: competition for [3H]PGE2 specific binding, relative to PGE2
T5 construct: a 1.9 kb full length human EP3α cDNA clone was plaque-purified; expressed in transfected cells; host or cells: COS-M6 cells (membranes), pcDNAIamp vector
T5 sequence (P43115 1-390): T1 sequence (P43115 1-390)
Protocol: as §1, with “cells.” for “cells. Binding assays for receptor activity are known in the art (Frey et al., 1993, Eur. J. Pharmacol., 244, pp 239-250).”
as §2

thromboxane receptor = target: T6, thromboxane receptor (Homo sapiens, UniProt P21731); experiment: SQ-29548 binding to 293 cells and membranes transfected with thromboxane-receptor cDNA; settings: human embryonic kidney 293 cells and membranes transfected with thromboxane-receptor cDNA
T6 construct: One full-length (≈ 2.9 kb) clone contained extensive 5' and 3' noncoding regions; expressed in transfected cells; host or cells: human embryonic kidney 293 cells and membranes
T6 sequence (P21731 1-343): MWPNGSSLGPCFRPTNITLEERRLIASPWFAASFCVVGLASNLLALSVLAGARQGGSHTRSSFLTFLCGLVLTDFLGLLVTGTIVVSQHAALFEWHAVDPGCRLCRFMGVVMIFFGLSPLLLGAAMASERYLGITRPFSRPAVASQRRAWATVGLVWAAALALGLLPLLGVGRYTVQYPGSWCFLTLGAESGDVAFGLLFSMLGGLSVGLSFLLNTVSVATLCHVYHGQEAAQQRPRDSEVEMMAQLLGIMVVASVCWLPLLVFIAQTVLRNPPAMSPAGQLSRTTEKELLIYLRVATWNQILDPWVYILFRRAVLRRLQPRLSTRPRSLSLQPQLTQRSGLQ
Text: The thromboxane receptor has been expressed in Xenopus oocytes. It can couple with endogenous signal transduction components to elicit a calcium-activated Cl- current recorded by electrophysiological measurement using the procedure described by Hirata, M. et al., (1991), Nature, 349, pp. 617. Binding studies have been performed with COS-1 cell membranes transfected by thromboxane receptor cDNA using the ligand S-145 (Hirata, M. et al., (1991), Nature, 349, pp. 617). […] This level of expression is at least 5-10 times higher than in platelet membranes. On a per-cell basis assuming a 10% transfection efficiency, we estimate ≈ 10^6 binding sites/tranfected cell as compared to ≈ 1300 sites present on a platelet (Hourani, S.M.O, et al., (1991), Pharmacol. Rev., 43, pp. 243).

SMILES | IC50 [1] | fold less active than PGE2 (hEP3-9) | fold less active than PGE2 (hEP3-21) | fold less active than PGE2 (hEP3α) | further results
CCCCC(C)(O)C/C=C/[C@H]1[C@H](O)CC(=O)[C@@H]1CCCCCCC(=O)OC (mixture of isomers) [misoprostol] | 300 to 1200 nM | – | – | – | –
CC(C)Oc1ccc2c(=O)c3cc(C(=O)O)ccc3oc2c1 [AH6809] | 2000 to 7000 nM | – | – | – | IC50 (hEP1): 500 nM; fold less active at the hEP3 subtype as compared with the hEP1 subtype ([1]; hEP3 versus hEP1, in general): 5-10 fold
CCCCC[C@H](O)/C=C/[C@H]1C(=O)C[C@H](O)[C@@H]1C/C=C\CCCC(=O)O [PGD2] | – | ~500 fold | ~2000 fold | ~2000 fold | –
CCCCC[C@H](O)/C=C/[C@H]1[C@H](O)CC(=O)[C@@H]1CCCCCCC(=O)O [PGE1] | – | – | – | – | IC50 (hEP3-9): ~1 nM; IC50 (hEP3-21): ~1 nM; IC50 (hEP3α): ~1 nM
CCCCC[C@H](O)/C=C/[C@@H]1[C@@H](C/C=C\CCCC(=O)O)[C@@H](O)C[C@H]1O [PGF2α] | – | ~65 fold | approximately 200 fold | approximately 200 fold | –
O=C(O)CCC/C=C\C[C@@H]1[C@H](CNNC(=O)Nc2ccccc2)[C@H]2CC[C@@H]1O2 [SQ-29548] | – | – | – | – | binding (thromboxane receptor): high affinity binding

Source: patent EP0705277B1, “PROSTAGLANDIN RECEPTOR EP3 AND DNA ENCODING IT” (MERCK FROSST CANADA INC., priority 1993, dated 1995)
